Test results reported in patent US20240148821A1, “PHARMACEUTICAL USE OF CYCLIC PEPTIDE COMPOUND” (CHUGAI SEIYAKU KABUSHIKI KAISHA, priority 2021, published 2024).
Numbered stars: 1 amine (or outer) side, 2 acyl side, 3 side chain; on linkers, the order of the positions; unused ones are H or OH. Bridge positions count the residues as written; N and C are the ends. Square brackets hold non-standard residues; d marks the D form. Peptide text beside a SMILES is read from it. * marks the point of attachment. NMeAbu(3,3-F2-piperidino) = CN[C@@H](CCN1CCCC(F)(F)C1)C(=O)O; hPhe(3-Cl-4-CF3) = N[C@@H](CCc1ccc(C(F)(F)F)c(Cl)c1)C(=O)O; hPhe(4-CF3) = N[C@@H](CCc1ccc(C(F)(F)F)cc1)C(=O)O; NMePhe(4-Cl) = CN[C@@H](Cc1ccc(Cl)cc1)C(=O)O; NMePhe(4-Me) = CN[C@@H](Cc1ccc(C)cc1)C(=O)O; X110 = Cc1ccc(I)cc1C[C@H](N[*:1])C(=O)[*:2]; X48 = CN([C@@H](CCc1cccnc1)C(=O)[*:2])[*:1]; Phe(3-I) = N[C@@H](Cc1cccc(I)c1)C(=O)O; Phe(4-Me) = Cc1ccc(C[C@H](N)C(=O)O)cc1; NMeY = CN[C@@H](Cc1ccc(O)cc1)C(=O)O; NMeCha = CN[C@@H](CC1CCCCC1)C(=O)O; NMeChg = CN[C@H](C(=O)O)C1CCCCC1; NMeF = CN[C@@H](Cc1ccccc1)C(=O)O; NMeI = CC[C@H](C)[C@H](NC)C(=O)O; NMeD = CN[C@@H](CC(=O)O)C(=O)O; NMeL = CN[C@@H](CC(C)C)C(=O)O; NMeNva = CCC[C@H](NC)C(=O)O; NMeV = CN[C@H](C(=O)O)C(C)C; d(β3hA) = C[C@@H](N)CC(=O)O; NMeAbu = CC[C@H](NC)C(=O)O; NMeS = CN[C@@H](CO)C(=O)O; Pip = O=C(O)[C@@H]1CCCCN1; NMeA = CN[C@@H](C)C(=O)O; NMeAib = CNC(C)(C)C(=O)O; Nle = CCCC[C@H](N)C(=O)O; Piperidide = C1CCN(*)CC1; Pyrrolidide = C1CCN(*)C1; Ac5c = NC1(C(=O)O)CCCC1; Aze = O=C(O)[C@@H]1CCN1; Sar = CNCC(=O)O

System: Human pancreatic cancer cell line AsPC-1 (G12D mutation Kras)
Test: AsPC-1 cell growth inhibition (AsPC-1 CGI)
Type: cell-based
Conditions: read-out: AsPC-1 cell growth inhibition, 50% growth inhibitory concentration (IC50 value); 96 hours, CellTiter-Glo, values classified in ranges
Description: Test compounds were serially dilated with dimethyl sulfoxide, and 200 nL was then dispensed to a U-bottom 96-well plate using Labcyte Echo. […] The cell suspension was dispensed to a. plate containing a test compound at 100 μL per well and incubated at 37° C. in a 5% carbon dioxide gas incubator. 96 hours later, 80 μL of CellTiter-Glo (Promega) was added to each well and fluorescence was measured.

Row | SMILES | IC50
1 | COC[C@@H]1NC(=O)[C@H](CC(C)C)N(C)C(=O)C[C@@H](C(=O)N2CCCCC2)N(C)C(=O)[C@H](C2CCCCC2)N(C)C(=O)C2(CCCC2)NC(=O)[C@@H]2CCCN2C(=O)[C@H](CCc2ccc(C(F)(F)F)c(Cl)c2)NC(=O)CN(C)C(=O)[C@H](CC2CCCCC2)N(C)C(=O)CN(C)C(=O)CN(C)C1=O [Compound 148] ([NMeL]S(Me)[Sar][Sar][NMeCha][Sar][hPhe(3-Cl-4-CF3)]P[Ac5c][NMeChg][NMeD]-Piperidide; lactam N-11) | > 500 nM
2 | CC[C@H](C)[C@@H]1NC(=O)[C@H](CC(C)C)N(C)C(=O)C[C@@H](C(=O)N(C)C)N(C)C(=O)[C@H]([C@@H](C)CC)N(C)C(=O)[C@H](C)NC(=O)[C@H](CCN2CCCC(F)(F)C2)N(C)C(=O)[C@H](CCc2ccc(C(F)(F)F)c(Cl)c2)NC(=O)CN(C)C(=O)[C@H](Cc2ccc(C)cc2)N(C)C(=O)[C@@H]2CCN2C(=O)[C@H](C)N(C)C1=O [Compound 1135] ([NMeL]I[NMeA][Aze][NMePhe(4-Me)][Sar][hPhe(3-Cl-4-CF3)][NMeAbu(3,3-F2-piperidino)]A[NMeI][NMeD]-NMe2; lactam N-11) | > 500 nM
3 | CC[C@H](C)[C@@H]1NC(=O)[C@H](CC(C)C)N(C)C(=O)C[C@@H](C(=O)N(C)C)N(C)C(=O)[C@H]([C@@H](C)CC)N(C)C(=O)C2(CCCC2)NC(=O)[C@H](CCc2cccnc2)N(C)C(=O)[C@H](CCc2ccc(C(F)(F)F)c(Cl)c2)NC(=O)CN(C)C(=O)[C@H](Cc2ccc(C)cc2)N(C)C(=O)[C@@H]2CCN2C(=O)[C@H](C)N(C)C1=O [Compound 1886] ([NMeL]I[NMeA][Aze][NMePhe(4-Me)][Sar][hPhe(3-Cl-4-CF3)][X48][Ac5c][NMeI][NMeD]-NMe2; lactam N-11) | ≤ 20 nM
4 | CC[C@H](C)[C@@H]1NC(=O)[C@@H]2CCCCN2C(=O)C[C@@H](C)NC(=O)[C@H](C(C)C)N(C)C(=O)[C@H](Cc2ccccc2)N(C)C(=O)[C@H](CC(C)C)N(C)C(=O)[C@H](CCc2ccc(C(F)(F)F)cc2)NC(=O)CN(C)C(=O)[C@H](Cc2ccc(Cl)cc2)N(C)C(=O)CN(C)C(=O)CN(C)C1=O [Compound 1110] (cyclo(I[Sar][Sar][NMePhe(4-Cl)][Sar][hPhe(4-CF3)][NMeL][NMeF][NMeV][d(β3hA)][Pip])) | > 500 nM
5 | CC[C@H](C)[C@@H]1NC(=O)[C@H](CC(C)C)N(C)C(=O)C[C@@H](C(=O)N2CCCCC2)N(C)C(=O)[C@H](C2CCCCC2)N(C)C(=O)C2(CCCC2)NC(=O)[C@@H]2CCCN2C(=O)[C@H](CCc2ccc(C(F)(F)F)c(Cl)c2)NC(=O)CN(C)C(=O)[C@H](COC)N(C)C(=O)CN(C)C(=O)CN(C)C1=O [Compound 623] ([NMeL]I[Sar][Sar][NMeS](Me)[Sar][hPhe(3-Cl-4-CF3)]P[Ac5c][NMeChg][NMeD]-Piperidide; lactam N-11) | > 500 nM
6 | CC[C@H](C)[C@@H]1NC(=O)[C@H](C)N(C)C(=O)C[C@@H](C)NC(=O)[C@H](C(C)C)N(C)C(=O)C2(CCCC2)NC(=O)[C@@H]2CCCN2C(=O)[C@H](CCc2ccc(C(F)(F)F)c(Cl)c2)NC(=O)CN(C)C(=O)[C@H](CC2CCCCC2)N(C)C(=O)CN(C)C(=O)CN(C)C1=O [Compound 697] (cyclo([Ac5c][NMeV][d(β3hA)][NMeA]I[Sar][Sar][NMeCha][Sar][hPhe(3-Cl-4-CF3)]P)) | > 500 nM
7 | CCC[C@H]1C(=O)N[C@@H]([C@@H](C)CC)C(=O)N(C)CC(=O)N(C)CC(=O)N(C)[C@@H](CC2CCCCC2)C(=O)N(C)CC(=O)N[C@@H](CCc2ccc(C(F)(F)F)c(Cl)c2)C(=O)N2CCC[C@H]2C(=O)NC2(CCCC2)C(=O)N(C)[C@@H](C2CCCCC2)C(=O)N(C)[C@H](C(=O)N2CCCC2)CC(=O)N1C [Compound 2001] ([NMeNva]I[Sar][Sar][NMeCha][Sar][hPhe(3-Cl-4-CF3)]P[Ac5c][NMeChg][NMeD]-Pyrrolidide; lactam N-11) | ≤ 20 nM
8 | CC[C@H](C)[C@@H]1NC(=O)[C@H](CC(C)C)N(C)C(=O)C[C@@H](C(=O)N2CCCCC2)N(C)C(=O)[C@H](CC(C)C)NC(=O)C(C)(C)N(C)C(=O)[C@H](Cc2ccc(C)cc2)NC(=O)[C@H](Cc2cccc(I)c2)NC(=O)CN(C)C(=O)[C@H](CC2CCCCC2)N(C)C(=O)CN(C)C(=O)CN(C)C1=O [Compound 166] ([NMeL]I[Sar][Sar][NMeCha][Sar][Phe(3-I)][Phe(4-Me)][NMeAib]L[NMeD]-Piperidide; lactam N-11) | > 500 nM
9 | CC[C@H](C)[C@@H]1NC(=O)[C@H](CC(C)C)N(C)C(=O)C[C@@H](C)NC(=O)[C@H](C(C)C)N(C)C(=O)C2(CCCC2)NC(=O)[C@@H]2CCCN2C(=O)[C@H](CCc2ccc(C(F)(F)F)c(Cl)c2)NC(=O)[C@H]2CCCN2C(=O)[C@H](CC2CCCCC2)N(C)C(=O)CN(C)C(=O)CN(C)C1=O [Compound 76] (cyclo([Ac5c][NMeV][d(β3hA)][NMeL]I[Sar][Sar][NMeCha][dP][hPhe(3-Cl-4-CF3)]P)) | > 500 nM
10 | CCCC[C@@H]1NC(=O)[C@H](Cc2cc(I)ccc2C)NC(=O)CN(C)C(=O)[C@H](Cc2ccc(OC)cc2)N(C)C(=O)[C@@H]2CCN2C(=O)[C@H](C)N(C)C(=O)[C@H]([C@@H](C)CC)NC(=O)[C@H](CC)N(C)C(=O)C[C@@H](C(=O)N2CCCCC2)N(C)C(=O)[C@H](CC(C)C)NC(=O)C(C)(C)N(C)C1=O [Compound 1358] ([NMeAbu]I[NMeA][Aze][NMeY](Me)[Sar][X110][Nle][NMeAib]L[NMeD]-Piperidide; lactam N-11) | > 500 nM
